What was measured:
[1] = water solubility; assay type: physicochemical
[2] = solubility in organic solvents relative to compound of formula I; assay type: physicochemical
Description: In Scheme III above, the compound of formula I may be contaminated with achiral dimer, (methylsulfonyl){2-[4-(4-{2-[(methylsulfonyl)amino]ethyl}phenyl)phenyl]ethyl}amine and chiral dimer, ((2R)-2-{4-[4-((1R)-1-methyl-2-{[(methylethyl)sulfonyl]amino}ethyl)phenyl]phenyl}propyl)[(methylethyl)sulfonyl]amine. […] However, the above achiral dimer is less soluble in organic solvents than the compound of formula I therefore, generally resisted removal from the compound of formula I by recrystallization.

water solubility [1] | solubility in organic solvents compared with the compound of formula I [2] | SMILES
poor |  | CC(C)S(=O)(=O)NC[C@H](C)c1ccc(-c2ccc(CCNS(C)(=O)=O)cc2)cc1 [compound of formula I, {(2R)-2-[4-(4-{2-[(methylsulfonyl)amino]ethyl}phenyl)phenyl]propyl}[(methylethyl)sulfonyl]amine]
 | more soluble | CC(C)S(=O)(=O)NC[C@H](C)c1ccc(-c2ccc([C@@H](C)CNS(=O)(=O)C(C)C)cc2)cc1 [chiral dimer, ((2R)-2-{4-[4-((1R)-1-methyl-2-{[(methylethyl)sulfonyl]amino}ethyl)phenyl]phenyl}propyl)[(methylethyl)sulfonyl]amine]
 | less soluble | CS(=O)(=O)NCCc1ccc(-c2ccc(CCNS(C)(=O)=O)cc2)cc1 [achiral dimer, (methylsulfonyl){2-[4-(4-{2-[(methylsulfonyl)amino]ethyl}phenyl)phenyl]ethyl}amine]

From US6984756B2, “Process for preparing biphenyl compounds” (Eli Lilly and Company, priority 2000, dated 2006)
